What was measured:
[1] = tested on: HCT116 or HT29; assay: Metastatic and orthotopic animal models of colon cancer, overall statements
Description: Colon cancer HCT116 or HT29 (5×10^6 cells/mouse) in PBS were injected into 4-6-week-old female NOD/SCID mice through the tail vein. Mice were then randomly assigned to different treatment groups by body weight. After 3 days, antibodies were administered through tail vein injection twice a week for four consecutive weeks. Crizotinib was administered daily by oral gavage for 5 days per week (treatment for four weeks). For the therapeutic study, tumor-bearing mice were treated with isotype control IgG1 (15 mg/kg), crizotinib (20 mg/kg), EpAb2-6 (15 mg/kg), or crizotinib (20 mg/kg) combined with EpAb2-6 (15 mg/kg). Mouse survival rate were measured.
Orthotopic tumor models were created as previously reported (Chen et al., 2020). Briefly, NSCID mice were used for orthotopic implantation of HCT116 cells previously infected with Lenti-luc virus (lentivirus containing luciferase gene). The mice were anesthetized by i.p. injection ofAvertin, 2,2,2-Tribromo-ethanol (Sigma-Aldrich) at a dose of 250 mg/kg. Tumor development was monitored by bioluminescence imaging. For the therapeutic study, tumor-bearing mice were treated with isotype control IgG1 (15 mg/kg), crizotinib (20 mg/kg), EpAb2-6 (15 mg/kg), or crizotinib (20 mg/kg) combined with EpAb2-6 (15 mg/kg). Tumor progression was monitored by quantification of bioluminescence. Mouse survival was also monitored.

[2] = tested on: HCT116 cells; assay: Apoptosis assay, annexin V-FITC/PI double labeling, HCT116; assay type: cell-based, human
Description: (§1) FIGS. 7A to 7G. EpAb2-6 binds EpEX and induces apoptosis by F(ab′)2 and inhibits regulated intramembrane proteolysis (RIP) activation and HGFR signaling. (FIG. 7A) Binding affinity of IgG EpAb2-6 (mouse) and F(ab′)2 to EpEX-His (1 μg/ml) coated overnight was checked using ELISA (OD450). (FIG. 7B) HCT116 cells were treated with 100 μg/ml control IgG, Fc, or F(ab′)2 of EpAb2-6 for 24 h. The apoptotic and necrotic cells were quantified by fluorescein annexin V-FITC/PI double labeling. (FIG. 7C) HCT116 and HT29 cells were treated with 10 μg/ml control IgG, MT201, humanized EpAb2-6 (hEpAb2-6) or mouse hybridoma EbAb2-6 (mEpAb2-6) for 24 h. The apoptotic and necrotic cells were quantified by fluorescein annexin V-FITC/PI double labeling. (FIG. 7D) HCT116 cells were treated with 10 μg/ml control IgG, MT201, hEpAb2-6 or mEpAb2-6 for 16 h, followed by treatment with EpEX-His (50 nM) for 15 min. Levels of phosphorylated HGFR, AKT, and ERK, and (FIG. 7E) RIP proteins ADAM17 and presenilin 2 were examined by Western blotting. Anti-EpCAM antibody and crizotinib coordinately induces apoptosis in colon cancer cells. (FIG. 7F) HCT116 and HT29 cells were treated with 10 μg/ml NMIgG or EpAb2-6 and 4 μM HGFR inhibitor crizotinib for 24 h. The apoptotic and necrotic cells were quantified by fluorescein annexin V-FITC/PI double labeling. (FIG. 7G) HCT116 and HT29 cells were treated with 10 μg/ml NMIgG or EpAb2-6 and 10 μM HGFR inhibitor crizotinib. Cell invasion was assessed by a Transwell assay with matrigel after 24 h.
(§2) Cells were seeded and treated with 10 μg/ml mAb or inhibitor for 6 h; an unrelated mouse myeloma immunoglobulin used at appropriate dilution served as the IgG2a (Invitrogen #02-6200) isotype control. Apoptotic cells were detected using Annexin V-FITC and PI, and were analyzed using a flow cytometer (BD Immmunocytometry Systems). Early apoptosis was measured with the Annexin V-FITC Apoptosis Detection kit II (BD Pharmingen). Late apoptotic nuclei were detected with propidium iodide (PI) staining.

[3] = tested on: HT29 cells; assay: Apoptosis assay, annexin V-FITC/PI double labeling, HT29; assay type: cell-based, human; conditions: 10 μg/ml EpAb2-6 and 4 μM crizotinib 24 h, FIG. 7F
Description: as §1, §2

[4] = tested on: HT29 cells; assay: Transwell invasion assay with matrigel, HT29; assay type: cell-based, human; conditions: 10 μg/ml EpAb2-6 and 10 μM crizotinib, 24 h, vs control IgG, FIG. 7G
Description: Cell migration and invasion were assayed with 8-μm pore size Transwell migration chambers (Millicell) without or with 10% matrigel. Cells (1×10^5) were added to the upper chamber in 500 μl serum-free DMEM. Then, 700 μl DMEM containing 10% FBS was added to the lower chamber as a chemoattractant. Migration and invasion were allowed to proceed for 16 h at 37° C. in a standard cell culture incubator. Then, cells were removed from the upper surface of the membranes with cotton swabs, and the cells that had migrated to the lower surface were stained with 0.05% (w/v) crystal violet in 4% paraformaldehyde (in 1×PBS) for 15 min and washed with water. Membranes were dried for 15-20 min before at least four random fields on the membrane examined at high power were counted for each experimental condition.

[5] = tested on: HCT116 cells; assay: Transwell migration/invasion and wound healing assay, HCT116; assay type: cell-based, human; conditions: HCT116; 10 μg/ml EpAb2-6 and 10 μM crizotinib; 24 h; vs control IgG; FIG. 7G
Description: FIGS. 3A to 3H. EpEX induces the activation of ERK and FAK-AKT signaling pathway. Wild type (WT) or EpCAM knockout (KO) HCT116 cells after EpEX-His treatment. (FIG. 3A) The levels of phosphorylated HGFR, AKT, FAK, GSK3β, ERK, ADAM17, and presenilin 2 were assayed by Western blotting. (FIG. 3B) Colony formation was examined by crystal violet staining. (FIG. 3C) HCT116 cells were treated with TAPI (ADAM17 inhibitor) or DAPT (γ-secretase inhibitor) for 24 hours, and the phosphorylation of HGFR, AKT, and ERK was analyzed by Western blotting, and EpEX protein level in culture medium was examined by immunoprecipitation and Western blotting. (FIG. 3D) HCT116 and HT29 cells were starved for 16 h, then treated with EpEX-His (50 nM) and HGF (0.5 nM) for 15 min. The levels of phosphorylated HGFR, AKT, and ERK were examined by Western blotting. (FIG. 3E) HCT116 cells were starved for 16 h, then treated with 50 nM EpEX-His for 15 min. HGFR inhibitor SU11274 (SU, 10 μM), AKT inhibitor LY294002 (LY, 25 μM), ERK inhibitor U0126 (U0, 20 μM), or FAK inhibitor PF-562271 (PF, 10 μM) were applied 1 h before EpEX treatment. Phosphorylation of AKT, ERK, and FAK was examined by Western blotting. (FIG. 3F) HCT116 cells were starved for 16 h, then treated with 50 nM EpEX, and SU (10 μM), LY (25 μM), U0 (20 μM) or PF (10 μM). Colony formation was examined by crystal violet staining after treatment for 7 days. The relative colony densities are shown. Migration ability was examined by the (FIG. 3G) wound healing assay at the indicated times. (FIG. 3H) The numbers of migration cell was assessed by a Transwell after treatment for 24 h.
FIGS. 4A to 4L. EpEX induces EMT and invasion by stabilizing β-catenin and Snail through decreasing GSK3β activity. (FIG. 4A) The protein expression of EMT markers and regulators was detected by Western blotting in Wild-type (WT) or EpCAM knockout (KO) HCT116 cells after EpEX treatment. (FIG. 4B) Cell invasion was examined by Transwell chamber assay with matrigel. (FIG. 4C) WT or KO HCT116 and HT29 cells were starved for 16 h, then treated with 0.5 nM of HGF with 2% FBS for 24 h. EMT-related protein expression (E-cadherin, vimentin, and Snail) was examined by Western blotting. (FIG. 4D) WT or KO HCT116 and HT29 cells were treated with HGF (0.5 nM) for 24 h. Invasion by HCT116 and HT29 cells was examined by Transwell chamber assay with matrigel. (FIG. 4E) HCT116 and HT29 cells were starved for 16 h, then treated with 0.5 nM of HGF with 2% FBS for 24 h. EMT-related protein expression (E-cadherin, Vimentin, and Snail) was examined by Western blotting. (FIG. 4F) HCT116 and HT29 cells were starved for 16 h, then treated with 0.5 nM of HGF with 2% FBS for 24 h. Cell invasion was assessed by a Transwell assay with matrigel. (FIG. 4G) HCT116 cells after shLuc and shHGFR treatment were treated with 50 nM of EpEX-His. HCT116 cells after shLuc and shHGFR treatment were treated with 50 nM of EpEX-His with 2% FBS for 24 h. EMT-related protein expression (E-cadherin, Vimentin, and Snail) was examined by Western blotting. (FIG. 4H) Cell invasion was examined by Transwell chamber assay with matrigel. (FIG. 4I) Starved HCT116 cells were treated SU (10 μM) for 1 h, followed by treatment with EpEX-His (50 nM) for 24 h. Phosphorylated GSK3β, active-β-catenin, and Snail were detected by Western blotting. (FIG. 4J) HCT116 cells were starved for 16 h, then treated with 50 nM EpEX-His for 24 min. AKT inhibitor LY294002 (25 μM), ERK inhibitor U0126 (20 μM), or PF-562271 (10 μM) were applied 1 h before EpEX treatment. Protein expression of phosphorylated GSK3β and Snail was examined by Western blotting. (FIG. 4K) HCT116 cells were starved for 16 h, then treated with 50 nM EpEX, and SU (10 μM), LY (25 μM), UO (20 μM) or PF (10 μM). Cell invasion was examined by Transwell chamber assay with matrigel. (FIG. 4L) Protein expression was analyzed by Western blotting in EpEX-His (50 nM) treated HCT116 cells after treatment with or without 2 μM GSK3β inhibitor (BIO) for 24 h. […]

C[C@@H](Oc1cc(-c2cnn(C3CCNCC3)c2)cnc1N)c1c(Cl)ccc(F)c1Cl [crizotinib, 3-[(1R)-1-(2,6-dichloro-3-fluorophenyl)ethoxy]-5-(1-piperidin-4-ylpyrazol-4-yl)pyridin-2-amine]
survival [1]: poor survival
tumor progression [1]: developed significant tumors
effect of crizotinib on the apoptotic effects of EpAb2-6 ([2]; 10 μg/ml EpAb2-6 and 4 μM crizotinib 24 h, FIG. 7F): enhance the apoptotic effects of EpAb2-6
sensitization of HCT116 cells to antibody-induced apoptosis after crizotinib treatment ([2]; discussion statement): sensitized to humanized-EpAb2-6- and EpAb2-6-induced apoptosis
effect of crizotinib on the apoptotic effects of EpAb2-6 [3]: enhance the apoptotic effects of EpAb2-6
effect of crizotinib on the inhibitory effect of EpAb2-6 on invasion [4]: enhanced the inhibitory effect of EpAb2-6 on invasion
effect of crizotinib on the inhibitory effect of EpAb2-6 on invasion [5]: enhanced the inhibitory effect of EpAb2-6 on invasion

From US20250269018A1, “COMBINED CANCER THERAPY WITH AN EPITHELIAL CELL ADHESION MOLECULE (EPCAM) INHIBITOR AND A HEPATOCYTE GROWTH FACTOR RECEPTOR (HGFR) INHIBITOR” (ACADEMIA SINICA, priority 2021, published 2025)
